Experimental data as given in US20240299360A1, “ADAMTS INHIBITORS, PREPARATION METHODS AND MEDICINAL USES THEREOF” (Jiangsu Hengrui Pharmaceuticals Co., Ltd., priority 2020, published 2024).

How the values were obtained:
Assay type in all cases: biochemical
[1] = target: ADAMTS-4 recombinant protein (Homo sapiens (Human), UniProt O75173); assay: In vitro fluorescence (FRET-peptide) enzymatic assay of ADAMTS-4 activity; conditions: FRET peptide substrate 15 μM, 10 nM enzyme, 37° C. 3 hours
Description: (§1) A FRET (fluorescence resonance energy transfer) peptide was cleaved by recombinant ADAMTS-4 or ADAMTS-5 proteins into two separate fragments resulting in an increase of fluorescence signal which was quantified. The peptide was 5-FAM-[…](5-TAMRA)K-NH2, customized from ANASPEC. ADAMTS-4 recombinant protein (catalog #4307-AD) and ADAMTS-5 recombinant protein (catalog #2198-AD) were purchased from R&D Systems.
(§2) An assay buffer containing 50 mM HEPES pH 7.5, 100 mM NaCl, 5 mM CaCl2, 0.1% CHAPS and 5% Glycerol was prepared. A volume of 2.5 μl of compound in the assay buffer was dispensed to a 384-well plate, and 2.5 μl of ADAMTS-4 or ADAMTS-5 protein (final concentration in the reaction was 10 nM) was added. The compounds and proteins were pre-incubated at room temperature for 15 minutes. Then, 5 μl of substrate was added to each well. The final substrate concentrations for ADAMTS-4 and ADAMTS-5 were 15 μM and 8 μM, respectively. The fluorescence signal in each well was determined, after incubation at 37° C. for 3 hours, on a TECAN plate reader (Excitation, 490 nm; Emission, 520 nm).
(§3) The data was inputted into GraphPad Prism, and the IC50 values were calculated using function “log (inhibitor) vs. response—Variable slope (four parameters)”. (See Table 1)

[2] = target: T1, ADAMTS-5 recombinant protein (Homo sapiens (Human), UniProt Q9UNA0); assay: In vitro fluorescence (FRET-peptide) enzymatic assay of ADAMTS-5 activity; conditions: FRET peptide substrate 8 μM, 10 nM enzyme, 37° C. 3 hours
T1 sequence (Q9UNA0 262-622): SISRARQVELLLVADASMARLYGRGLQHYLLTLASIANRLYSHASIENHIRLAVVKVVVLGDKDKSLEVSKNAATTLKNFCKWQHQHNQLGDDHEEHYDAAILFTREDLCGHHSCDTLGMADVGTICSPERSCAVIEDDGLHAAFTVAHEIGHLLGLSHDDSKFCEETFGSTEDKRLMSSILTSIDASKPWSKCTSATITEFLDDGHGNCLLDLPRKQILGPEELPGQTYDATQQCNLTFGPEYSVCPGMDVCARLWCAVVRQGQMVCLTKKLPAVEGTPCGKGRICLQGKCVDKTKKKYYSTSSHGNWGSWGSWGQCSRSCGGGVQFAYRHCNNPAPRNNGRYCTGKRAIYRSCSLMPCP
Description: as §1, §2, §3

[3] = target: T1, ADAMTS-5 recombinant protein; assay: In vitro ELISA of ADAMTS-5 activity (Aggrecan-IGD enzymatic assay); conditions: aggrecan-IGD substrate, ARGSVIL-peptide ELISA, 37° C. 45 minutes
Description: In this assay, the enzymatic activity of recombinant ADAMTS-5 protein (catalog #2198-AD, R&D Systems) was assayed with a protein substrate, the aggrecan IGD protein. The aggrecan IGD protein is a polypeptide connecting human aggrecan globular domains 1 and 2 (T331-G458) expressed in E. Coli with a C-terminal His-tag (catalog #30411000, BIOTEZ). The enzymatic product ARGSVIL-peptide was detected using an ELISA kit from BioTEZ (catalog #30510111).
An assay buffer containing 50 mM HEPES pH 7.5, 100 mM NaCl, 5 mM CaCl2), 0.1% CHAPS and 5% Glycerol was prepared. Recombinant ADAMTS-5 protein was diluted to 0.3 nM in the assay buffer. Ten μl of […] and 10 μl of compound solution was transferred to each well of a 96-well plate and incubated at room temperature for 15 minutes. Substrate aggrecan-IGD was diluted to 100 nM with the assay buffer and 20 μl was added to each well. The plate was incubated at 37° C. for 45 minutes. After incubation, the newly generated epitope ARGSVIL-peptides were measured using the Aggrecanase Activity ELISA Assay Kit following the manufacturer's instructions. Then, 100 μl of stop solution was added and the absorbance of each well was read at 450 nm, using […] as reference on a TECAN plate reader.
A standard curve of the ELISA assay was generated in GraphPad Prism using Sigmoidal 4PL function and the corresponding peptide concentrations were calculated based on the standard curve. The IC50 values were calculated using function “log (inhibitor) vs. response—Variable slope (four parameters)”. (See Table 2).

Chain of ADAMTS-4 recombinant protein (O75173 213-685): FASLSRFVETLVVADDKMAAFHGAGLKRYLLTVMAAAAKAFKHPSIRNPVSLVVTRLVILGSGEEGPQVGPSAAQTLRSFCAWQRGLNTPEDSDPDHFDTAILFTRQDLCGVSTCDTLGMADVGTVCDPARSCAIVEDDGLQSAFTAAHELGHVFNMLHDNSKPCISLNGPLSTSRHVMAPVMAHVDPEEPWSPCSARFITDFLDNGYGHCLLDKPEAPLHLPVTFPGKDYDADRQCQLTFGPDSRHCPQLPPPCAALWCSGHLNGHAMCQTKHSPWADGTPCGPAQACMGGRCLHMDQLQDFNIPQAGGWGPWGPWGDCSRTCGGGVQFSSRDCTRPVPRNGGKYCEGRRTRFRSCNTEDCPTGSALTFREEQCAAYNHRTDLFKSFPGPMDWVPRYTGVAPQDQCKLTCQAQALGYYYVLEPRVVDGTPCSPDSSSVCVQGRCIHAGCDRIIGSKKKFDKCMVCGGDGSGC

| Structure (SMILES) | IC50 [1] [nM] | IC50 [2] [nM] | IC50 [3] [nM] |
| --- | --- | --- | --- |
| CC(C[C@@]1(C2CC2)NC(=O)NC1=O)C(=O)N1Cc2cc(Cl)c(Cl)cc2C1 (mixture of isomers) [Example 34-2, (5S)-5-cyclopropyl-5-(3-(5,6-dichloroisoindolin-2-yl)-2-methyl-3-oxopropyl)imidazolidine-2,4-dione] | 7 | 9 | 17 |
| O=C1NC(=O)[C@](C[C@@H](CO)C(=O)N2Cc3cc(Cl)c(C(F)(F)F)cc3C2)(C2CC2)N1 (single isomer, unassigned) | 16 | 15 |  |
| C[C@H]1CN(C(=O)CC[C@@]2(C3CC3)NC(=O)NC2=O)CCc2ccc(F)cc21 (single isomer, unassigned) [Example 27] | 170 | 270 |  |
| C[C@@H]1CN(C(=O)CC[C@@]2(C3CC3)NC(=O)NC2=O)CCc2ccc(F)cc21 (single isomer, unassigned) [Example 28] | 47 | 48 |  |
| O=C1NC(=O)[C@](CCC(=O)N2CCc3cc(C(F)(F)F)ccc3C2)(C2CC2)N1 [Example 6, (S)-5-cyclopropyl-5-(3-oxo-3-(6-(trifluoromethyl)-3,4-dihydroisoquinolin-2 (1H)-yl)propyl)imidazolidine-2,4-dione] | 56 | 240 | 650 |
| C[C@@H]1c2ccccc2CN1C(=O)CC[C@@]1(C2CC2)NC(=O)NC1=O [Example 14, (S)-5-cyclopropyl-5-(3-((R)-1-methylisoindolin-2-yl)-3-oxopropyl)imidazolidine-2,4-dione] | 290 | 1000 |  |
| COc1cccc2c1CCN(C(=O)CC[C@@]1(C3CC3)NC(=O)NC1=O)CC2 [Example 25, (S)-5-cyclopropyl-5-(3-(6-methoxy-1,2,4,5-tetrahydro-3H-benzo[d]azepin-3-yl)-3-oxopropyl)imidazolidine-2,4-dione] | 5800 | 3600 |  |
| CC1(C)CN(C(=O)CC[C@@]2(C3CC3)NC(=O)NC2=O)CCc2ccccc21 [Example 26, (S)-5-cyclopropyl-5-(3-(1,1-dimethyl-1,2,4,5-tetrahydro-3H-benzo[d]azepin-3-yl)-3-oxopropyl)imidazolidine-2,4-dione] | 3800 | 5400 |  |
| CCC(C[C@@]1(C2CC2)NC(=O)NC1=O)C(=O)N1Cc2ccc(C(F)(F)F)cc2C1 (stereo partly drawn) [Example 31-2, (5S)-5-cyclopropyl-5-(2-(5-(trifluoromethyl)isoindoline-2-carbonyl)butyl)imidazolidine-2,4-dione] |  |  | 33 |
| O=C1NC(=O)C(CCC(=O)N2Cc3ccc(C(F)(F)F)cc3C2)(c2nccs2)N1 (centres unmarked) [Example 43, 5-(3-oxo-3-(5-(trifluoromethyl)isoindolin-2-yl)propyl)-5-(thiazol-2-yl)imidazolidine-2,4-dione] | 150 | 250 |  |
| O=C1NC(=O)C(CCC(=O)N2Cc3ccc(C(F)(F)F)cc3C2)(c2ccccn2)N1 (centres unmarked) [Example 60, 5-(3-oxo-3-(5-(trifluoromethyl)isoindolin-2-yl)propyl)-5-(pyridin-2-yl)imidazolidine-2,4-dione] | 170 | 220 |  |
| O=C1NC(=O)[C@](CCC(=O)N2Cc3ccc(CC(F)(F)F)cc3C2)(C2CC2)N1 [Example 72, (S)-5-cyclopropyl-5-(3-oxo-3-(5-(2,2,2-trifluoroethyl)isoindolin-2-yl)propyl)imidazolidine-2,4-dione] | 43 | 130 |  |
| Cn1ccc(C2(CCC(=O)N3Cc4cc(Cl)c(C(F)(F)F)cc4C3)NC(=O)NC2=O)n1 (centres unmarked) [Example 77, 5-(3-(5-chloro-6-(trifluoromethyl)isoindolin-2-yl)-3-oxopropyl)-5-(1-methyl-1H-pyrazol-3-yl)imidazolidine-2,4-dione] | 400 | 160 |  |
| CCn1ccnc1C1(CCC(=O)N2Cc3cc(Cl)c(C(F)(F)F)cc3C2)NC(=O)NC1=O (centres unmarked) [Example 82, 5-(3-(5-chloro-6-(trifluoromethyl)isoindolin-2-yl)-3-oxopropyl)-5-(1-ethyl-1H-imidazol-2-yl)imidazolidine-2,4-dione] | 80 | 25 |  |

Other lines, results leading:

| IC50 [1] [nM] | IC50 [2] [nM] | IC50 [3] [nM] | Structure (SMILES) |
| --- | --- | --- | --- |
| 91 | 190 | 860 | O=C1NC(=O)[C@](CCC(=O)N2Cc3ccc(Cl)cc3C2)(C2CC2)N1 [Example 2, (S)-5-(3-(5-chloroisoindolin-2-yl)-3-oxopropyl)-5-cyclopropylimidazolidine-2,4-dione] |
| 170 | 480 | 730 | O=C1NC(=O)[C@](CCC(=O)N2Cc3ccc(OC(F)(F)F)cc3C2)(C2CC2)N1 [Example 4, (S)-5-cyclopropyl-5-(3-oxo-3-(5-(trifluoromethoxy)isoindolin-2-yl)propyl)imidazolidine-2,4-dione] |
| 41 | 260 |  | O=C1NC(=O)[C@](CCC(=O)N2Cc3ccc(OC(F)F)cc3C2)(C2CC2)N1 [Example 10, (S)-5-cyclopropyl-5-(3-(5-(difluoromethoxy)isoindolin-2-yl)-3-oxopropyl)imidazolidine-2,4-dione] |
| 2300 | 1500 |  | O=C1NC(=O)[C@](CCC(=O)N2Cc3cccnc3C2)(C2CC2)N1 [Example 12, (S)-5-cyclopropyl-5-(3-(5,7-dihydro-6H-pyrrolo[3,4-b]pyridin-6-yl)-3-oxopropyl)imidazolidine-2,4-dione] |
| 1400 | 4000 |  | O=C1NC(=O)[C@](CCC(=O)N2Cc3ccncc3C2)(C2CC2)N1 [Example 13, (S)-5-cyclopropyl-5-(3-(1,3-dihydro-2H-pyrrolo[3,4-c]pyridin-2-yl)-3-oxopropyl)imidazolidine-2,4-dione] |
| 1700 | 6200 |  | O=C1NC(=O)[C@](CCC(=O)N2Cc3cccc(F)c3C2)(C2CC2)N1 [Example 16, (S)-5-cyclopropyl-5-(3-(4-fluoroisoindolin-2-yl)-3-oxopropyl)imidazolidine-2,4-dione] |
| 310 | 370 |  | O=C1NC(=O)[C@](CCC(=O)N2Cc3ccc(F)cc3C2)(C2CC2)N1 [Example 17, (S)-5-cyclopropyl-5-(3-(5-fluoroisoindolin-2-yl)-3-oxopropyl)imidazolidine-2,4-dione] |
| 260 | 330 |  | O=C1NC(=O)[C@](CCC(=O)N2Cc3cc(F)c(F)cc3C2)(C2CC2)N1 [Example 19, (S)-5-cyclopropyl-5-(3-(5,6-difluoroisoindolin-2-yl)-3-oxopropyl)imidazolidine-2,4-dione] |
| 120 | 220 |  | O=C1NC(=O)[C@](CCC(=O)N2Cc3cc(Cl)c([N+](=O)[O-])cc3C2)(C2CC2)N1 [Example 50, (S)-5-(3-(5-chloro-6-nitroisoindolin-2-yl)-3-oxopropyl)-5-cyclopropylimidazolidine-2,4-dione] |
| 240 | 170 |  | O=C1NC(=O)[C@](CCC(=O)N2Cc3cc(Cl)c(I)cc3C2)(C2CC2)N1 [Example 53, (S)-5-(3-(5-chloro-6-iodoisoindolin-2-yl)-3-oxopropyl)-5-cyclopropylimidazolidine-2,4-dione] |
| 56 | 100 |  | O=C1NC(=O)[C@](CCC(=O)N2Cc3cc(F)c(C(F)F)cc3C2)(C2CC2)N1 [Example 74, (S)-5-cyclopropyl-5-(3-(5-(difluoromethyl)-6-fluoroisoindolin-2-yl)-3-oxopropyl)imidazolidine-2,4-dione] |
